The record followed here is patent US12459899B2, “Isoquinolinone derivatives, method for preparing the same, and pharmaceutical composition for preventing or treating poly(ADP-ribose) polymerase-1-related diseases, comprising the same as active ingredient” (DIGMBIO. INC., priority 2019, dated 2025).

Some results are limits rather than exact numbers.

For this experiment, the target named is PARP-1 (poly[ADP-ribose] polymerase 1) enzyme (Homo sapiens (Human), UniProt P09874). Briefly: PARP-1 (poly[ADP-ribose] polymerase 1) enzyme inhibitory ability, Trevigen assay kit. In kind it is biochemical. Conditions: for inhibition at 0.001 µM: 1 nM compound, read-out: PAR P-1 Inhibitory ability at 1 nM; for IC50: PARP-1 enzyme activity. A digest of the protocol:
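After the 1 hour PARP reaction, wells were washed with PBS containing 0.1% triton X-100 and then PBS. Strep-HRP (50 μL) was bound for 1 hour, wells washed again, and 50 μL of TACS-sapphire substrate developed 15 minutes in the dark. Reactions were stopped with 50 μL of 5% phosphoric acid and absorbance read at 450 nm on a Victor3 reader.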

Chain of PARP-1 (poly[ADP-ribose] polymerase 1) enzyme (P09874 whole entry): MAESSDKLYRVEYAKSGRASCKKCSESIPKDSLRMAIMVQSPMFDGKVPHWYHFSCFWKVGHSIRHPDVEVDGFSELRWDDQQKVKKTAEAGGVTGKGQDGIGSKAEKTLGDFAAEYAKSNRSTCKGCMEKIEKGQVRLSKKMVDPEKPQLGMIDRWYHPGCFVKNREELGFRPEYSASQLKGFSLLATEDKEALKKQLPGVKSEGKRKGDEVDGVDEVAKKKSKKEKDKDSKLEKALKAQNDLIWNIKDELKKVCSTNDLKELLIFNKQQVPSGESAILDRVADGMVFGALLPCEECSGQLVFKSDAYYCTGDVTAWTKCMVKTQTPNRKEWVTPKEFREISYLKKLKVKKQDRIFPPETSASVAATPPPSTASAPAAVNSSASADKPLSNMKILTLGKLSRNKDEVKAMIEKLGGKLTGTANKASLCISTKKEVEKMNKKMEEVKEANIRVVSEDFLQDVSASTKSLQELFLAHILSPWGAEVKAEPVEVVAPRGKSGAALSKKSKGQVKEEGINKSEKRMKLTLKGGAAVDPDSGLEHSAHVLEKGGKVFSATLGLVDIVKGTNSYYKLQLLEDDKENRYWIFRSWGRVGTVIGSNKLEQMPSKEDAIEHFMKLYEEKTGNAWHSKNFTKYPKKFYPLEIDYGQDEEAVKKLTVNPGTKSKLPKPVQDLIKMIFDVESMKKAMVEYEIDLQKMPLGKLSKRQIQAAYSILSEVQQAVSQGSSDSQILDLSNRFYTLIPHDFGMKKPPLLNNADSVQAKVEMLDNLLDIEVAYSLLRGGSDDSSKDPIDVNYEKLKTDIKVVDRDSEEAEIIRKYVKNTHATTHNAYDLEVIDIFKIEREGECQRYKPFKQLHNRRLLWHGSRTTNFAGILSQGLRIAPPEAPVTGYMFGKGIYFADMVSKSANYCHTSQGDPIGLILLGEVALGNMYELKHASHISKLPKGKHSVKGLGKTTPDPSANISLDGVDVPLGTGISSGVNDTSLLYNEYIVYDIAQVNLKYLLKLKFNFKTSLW

`N#Cc1ccc(N2CCN(C(=O)CCc3cc4ccc(F)cc4c(=O)[nH]3)CC2)cc1` [Example 94, 4-(4-(3-(7-fluoro-1-oxo-1,2-dihydroisoquinolin-3-yl)propanoyl)piperazin-1-yl)benzonitrile]: the inhibition at 0.001 µM was below 50%.

Turning to `N#Cc1ccc(C2=CCN(C(=O)CCc3cc4ccc(F)cc4c(=O)[nH]3)CC2)cc1` [Example 95, 4-(1-(3-(7-fluoro-1-oxo-1,2-dihydroisoquinolin-3-yl)propanoyl)-1,2,3,6-tetrahydropyridin-4-yl)benzonitrile], the inhibition at 0.001 µM is below 50%.

Take `N#Cc1ccc(C2=CCN(C(=O)CCc3cc4ccc(F)cc4c(=O)[nH]3)CC2)nc1` [Example 96, 1′-(3-(7-fluoro-1-oxo-1,2-dihydroisoquinolin-3-yl)propanoyl)-1′,2′,3′,6′-tetrahydro-[2,4′-bipyridine]-5-carbonitrile]: the inhibition at 0.001 µM is below 50%.

Turning to `N#Cc1ccc(N2CCN(C(=O)CCc3cc4ccc(F)cc4c(=O)[nH]3)CC2)cn1` [Example 97, 5-(4-(3-(7-fluoro-1-oxo-1,2-dihydroisoquinolin-3-yl)propanoyl)piperazin-1-yl)picolinonitrile], the inhibition at 0.001 µM is below 50%.

Regarding `N#Cc1ccccc1N1CCN(C(=O)CCc2cc3ccc(F)cc3c(=O)[nH]2)CC1` [Example 98, 2-(4-(3-(7-fluoro-1-oxo-1,2-dihydroisoquinolin-3-yl)propanoyl)piperazin-1-yl)benzonitrile], the inhibition at 0.001 µM is below 50%.

In the case of `N#Cc1ccc(N2CCN(C(=O)CCc3cc4ccc(F)cc4c(=O)[nH]3)CC2)nc1` [Example 99, 6-(4-(3-(7-fluoro-1-oxo-1,2-dihydroisoquinolin-3-yl)propanoyl)piperazin-1-yl)nicotinonitrile], the inhibition at 0.001 µM is below 50% and it took 1.05 nM to reach half-maximal inhibition (IC50).

On to `N#Cc1ccc(N2CCN(C(=O)CCc3cc4ccc(F)cc4c(=O)[nH]3)CC2)c(F)c1` [Example 100, 3-fluoro-4-(4-(3-(7-fluoro-1-oxo-1,2-dihydroisoquinolin-3-yl)propanoyl)piperazin-1-yl)benzonitrile], for which the inhibition at 0.001 µM was below 50%.

`N#Cc1ccc(N2CCN(C(=O)CCc3cc4ccc(F)cc4c(=O)[nH]3)CC2)cc1F` [Example 101, 2-fluoro-4-(4-(3-(7-fluoro-1-oxo-1,2-dihydroisoquinolin-3-yl)propanoyl)piperazin-1-yl)benzonitrile]: the inhibition at 0.001 µM was below 50%.

As for `O=C(CCc1cc2ccc(F)cc2c(=O)[nH]1)N1CC=C(c2ccc(F)nc2)CC1` [Example 102], the inhibition at 0.001 µM is below 50%.

Consider `O=C(CCc1cc2ccc(F)cc2c(=O)[nH]1)N1CC=C(c2ccc(F)cn2)CC1` [Example 103, 7-fluoro-3-(3-(5-fluoro-3′,6′-dihydro-[2,4′-bipyridine]-1′(2′H)-yl)-3-oxopropyl)isoquinolin-1(2H)-one], for which the inhibition at 0.001 µM is below 50% and it took 0.91 nM to reach half-maximal inhibition (IC50).

For `O=C(CCc1cc2ccc(F)cc2c(=O)[nH]1)N1CC=C(c2ccc(F)cc2)CC1` [Example 104, 7-fluoro-3-(3-(4-(4-fluorophenyl)-3,6-dihydropyridin-1(2H)-yl)-3-oxopropyl)isoquinolin-1(2H)-one], the inhibition at 0.001 µM was below 50%.

Consider `O=C(CCc1cc2ccc(F)cc2c(=O)[nH]1)N1CCN(c2ccc(Cl)cc2)CC1` [Example 105, 3-(3-(4-(4-chlorophenyl)piperazin-1-yl)-3-oxopropyl)-7-fluoroisoquinolin-1(2H)-one], for which the inhibition at 0.001 µM is below 50%.

For `O=C(CCc1cc2ccc(F)cc2c(=O)[nH]1)N1CCN(c2ccc(F)cc2F)CC1` [Example 106, 3-(3-(4-(2,4-difluorophenyl)piperazin-1-yl)-3-oxopropyl)-7-fluoroisoquinolin-1(2H)-one], the inhibition at 0.001 µM was below 50%.

With `N#Cc1ccc(F)c(N2CCN(C(=O)CCc3cc4ccc(F)cc4c(=O)[nH]3)CC2)c1` [Example 107, 4-fluoro-3-(4-(3-(7-fluoro-1-oxo-1,2-dihydroisoquinolin-3-yl)propanoyl)piperazin-1-yl)benzonitrile], the inhibition at 0.001 µM was below 50%.

Regarding `N#Cc1ccc(F)cc1N1CCN(C(=O)CCc2cc3ccc(F)cc3c(=O)[nH]2)CC1` [Example 108, 4-fluoro-2-(4-(3-(7-fluoro-1-oxo-1,2-dihydroisoquinolin-3-yl)propanoyl)piperazin-1-yl)benzonitrile], the inhibition at 0.001 µM is below 50%.

Take `N#Cc1cc(N2CCN(C(=O)CCc3cc4ccc(F)cc4c(=O)[nH]3)CC2)ccc1F` [Example 109, 2-fluoro-5-(4-(3-(7-fluoro-1-oxo-1,2-dihydroisoquinolin-3-yl)propanoyl)piperazin-1-yl)benzonitrile]: the inhibition at 0.001 µM was below 50%.

On to `N#Cc1cc(F)ccc1N1CCN(C(=O)CCc2cc3ccc(F)cc3c(=O)[nH]2)CC1` [Example 110, 5-fluoro-2-(4-(3-(7-fluoro-1-oxo-1,2-dihydroisoquinolin-3-yl)propanoyl)piperazin-1-yl)benzonitrile], for which the inhibition at 0.001 µM is below 50%.

In the case of `N#Cc1ccc(F)c(C2=CCN(C(=O)CCc3cc4ccc(F)cc4c(=O)[nH]3)CC2)c1` [Example 111, 4-fluoro-3-(1-(3-(7-fluoro-1-oxo-1,2-dihydroisoquinolin-3-yl)propanoyl)-1,2,3,6-tetrahydropyridin-4-yl)benzonitrile], the inhibition at 0.001 µM was below 50%.

For the compound `N#Cc1cc(F)ccc1C1=CCN(C(=O)CCc2cc3ccc(F)cc3c(=O)[nH]2)CC1` [Example 112, 5-fluoro-2-(1-(3-(7-fluoro-1-oxo-1,2-dihydroisoquinolin-3-yl)propanoyl)-1,2,3,6-tetrahydropyridin-4-yl)benzonitrile], the inhibition at 0.001 µM is below 50%.

On to `O=C(CCc1cc2ccc(F)cc2c(=O)[nH]1)N1CC=C(c2ccc(F)cc2F)CC1` [Example 113, 3-(3-(4-(2,4-difluorophenyl)-3,6-dihydropyridin-1(2H)-yl)-3-oxopropyl)-7-fluoroisoquinolin-1(2H)-one], for which the inhibition at 0.001 µM is below 50%.

In the case of `N#Cc1cc(F)cc(C2=CCN(C(=O)CCc3cc4ccc(F)cc4c(=O)[nH]3)CC2)c1` [Example 114, 3-fluoro-5-(1-(3-(7-fluoro-1-oxo-1,2-dihydroisoquinolin-3-yl)propanoyl)-1,2,3,6-tetrahydropyridin-4-yl)benzonitrile], the inhibition at 0.001 µM is below 50%.

Take `O=C(CCc1cc2ccc(F)cc2c(=O)[nH]1)N1CC=C(c2cccc(F)c2)CC1` [Example 115, 7-fluoro-3-(3-(4-(3-fluorophenyl)-3,6-dihydropyridin-1(2H)-yl)-3-oxopropyl)isoquinolin-1(2H)-one]: the inhibition at 0.001 µM was below 50%.

As for `O=C(CCc1cc2ccc(F)cc2c(=O)[nH]1)N1CC[C@H](c2ccc(F)cc2)C1` [Example 116, (R)-7-fluoro-3-(3-(3-(4-fluorophenyl)pyrrolidin-1-yl)-3-oxopropyl)isoquinolin-1(2H)-one], the inhibition at 0.001 µM is below 50%.

Regarding `O=C(CCc1cc2ccc(F)cc2c(=O)[nH]1)N1CC[C@@H](c2ccc(F)cc2)C1` [Example 117, (S)-7-fluoro-3-(3-(3-(4-fluorophenyl)pyrrolidin-1-yl)-3-oxopropyl)isoquinolin-1(2H)-one], the inhibition at 0.001 µM is below 50%.

Turning to `O=C(CCc1cc2ccc(F)cc2c(=O)[nH]1)N1CCN(c2ccc(C(F)(F)F)cc2)CC1` [Example 118, 7-fluoro-3-(3-oxo-3-(4-(4-(trifluoromethyl)phenyl)piperazin-1-yl)propyl)isoquinolin-1(2H)-one], the inhibition at 0.001 µM was below 50%.
